According to patent US11555212B2, “Process for the production of sulfated phenolic compounds using modified Escerichia coli” (CysBio ApS, priority 2016, dated 2023):

Experiments:
RmXAL = target: T1, RmXAL (Rhodotorula mucilaginosa, UniProt P10248); assay: pHCA and zosteric acid in culture media of E. coli expressing a tyrosine ammonia lyase; format: cell-based, Rhodotorula mucilaginosa/Rhodotorula rubra; conditions: E. coli BL21(DE3)pLysS expressing RmXAL alone, M9 glucose, 0.1 mM IPTG, no substrate added
T1 construct: The gene encoding RmXAL was codon optimized using standard algorithms for expression in E. coli; expressed in transfected cells; host or cells: E. coli BL21(DE3)pLysS
Procedure: (§1) The concentration of p-courmaric acid (pHCA) and zosteric acid in the supernatant was quantified by high performance liquid chromatography (HPLC) and compared to chemical standards. HPLC was done on a Thermo setup using a HS-F5 column and mobile phases: 5 mM ammonium formate pH 4.0 (A) and acetonitrile (B) at 1.5 mL min-1, using a gradient elution starting at 5% B. From 0.5 min after injection to 7 min, the fraction of B increased linearly from 5% to 60%, and between 9.5 min and 9.6 the fraction of B decreased back to 5%, and remaining there until 12 min. pHCA and zosteric acid were quantified by measuring absorbance at 277 nm.
The enzyme RmXAL from Rhodotorula mucilaginosa/Rhodotorula rubra (SEQ ID NO: 46) has tyrosine ammonia lyase activity, thus catalyzing the non-oxidative deamination of the amino acid tyrosine, releasing p-coumaric acid (pHCA) and ammonia. The gene encoding RmXAL was codon optimized using standard algorithms for expression in E. coli available by GeneArt (Life Technologies) and amplified by PCR using the primers shown in Table 5 and inserted into the pCDFDuet-1 vector (Novagen/Life Technologies), which had been digested by the restriction enzymes NdeI and BgIII, using Gibson reaction (New England Biolabs). […]

[1] = target: T2, SULT1A1 Canis lupus familiaris (Canis lupus familiaris, UniProt Q29476); assay: Production of zosteric acid from pHCA in E. coli expressing a sulfotransferase; format: cell-based; conditions: E. coli BL21(DE3)pLysS expressing SULT1A1 Canis lupus familiaris; M9 glucose, 0.1 mM IPTG, 0.1 mM pHCA; four days
T2 construct: 1, 3, 4, 5, and 6 were cloned amplified from liver tissue cDNA; expressed in transfected cells; host or cells: E. coli BL21(DE3)pLysS
Excerpt: (§2) A range of aryl sulfotransferases including SULT1A1 Rattus norvegicus (SEQ ID NO: 1), SULT1A1 Homo sapiens (SEQ ID NO: 2), SULT1A1 Equus caballus (SEQ ID NO: 3), SULT1A1 Sus scrofa domesticus (SEQ ID NO: 4), SULT1A1 Canis lupus familiaris (SEQ ID NO: 5) and SULT1E1 Gallus gallus domesticus (SEQ ID NO: 6) were expressed in Escherichia coli. […]. The nucleotide sequence of the gene encoding SEQ ID NO: 2 was codon optimized for expression in Escherichia coli (GeneArt, Life Technologies) and amplified by PCR using the primers in Table 1. The pETDuet-1 plasmid was digested with restriction endonucleases NcoI and SalI. The PCR products were then individually cloned into the plasmid pETDuet-1 using the Gibson reaction (New England Biolabs). The resulting plasmids were transformed into BL21(DE3)pLysS (Life Technologies).
(§3) The strains were grown in M9 minimal media containing glucose as a carbon source, and 0.1 mM IPTG for induction of gene expression as well as 0.1 mM p-coumaric acid (pHCA). After four days of growth, samples were withdrawn by filtration and analyzed by HPLC.
as §1

SULT1A1 human = target: T3, SULT1A1 human (Homo sapiens, UniProt P50225, V223M); assay: as above; format: cell-based; conditions: E. coli BL21(DE3)pLysS expressing SULT1A1 Homo sapiens; M9 glucose, 0.1 mM IPTG, 0.1 mM pHCA; four days
T3 construct: expressed in transfected cells; host or cells: E. coli BL21(DE3)pLysS
Excerpt: as §2, §3, §1

[2] = target: T4, SULT1A1 Rattus norvegicus (Rattus norvegicus, UniProt P17988); assay: as above; format: cell-based; conditions: E. coli BL21(DE3)pLysS expressing SULT1A1 Rattus norvegicus; M9 glucose, 0.1 mM IPTG, 0.1 mM pHCA; four days; culture media, HPLC
T4 construct: 1, 3, 4, 5, and 6 were cloned amplified from liver tissue cDNA; expressed in transfected cells
Excerpt: as §2, §3, §1

E. coli MG1655 = assay: Toxicity of unsulfated or sulfated product: growth rates of E. coli; conditions: M9 minimal media, 0.2% glucose, pH 7, 37° C.; pHCA 10-40 mM; zosteric acid 20 mM or 40 mM
Procedure: E. coli MG1655 was grown in chemically defined M9 minimal media with 0.2% glucose as a carbon source without further addition or with the additions of either 10 mM, 20 mM, 25 mM, 30 mM, 35 mM or 40 mM p-coumaric acid (pHCA), or with 20 mM or 40 mM of the sulfate ester of pHCA (zosteric acid). All media preparations had been adjusted to pH 7. Cells were grown at 37° C. with 250 rpm shaking in an orbital shaker. The growth rates were examined by following the optical density at 600 nm.

[3] = tested on: SULT1E1 Gallus gallus domesticus; assay: Percent conversion of substrates by E. coli expressing a sulfotransferase; format: cell-based; conditions: E. coli BL21(DE3)pLysS expressing SULT1E1 Gallus gallus domesticus; M9; pHCA 100 μM, resveratrol 95 μM or kaempferol 87 μM; overnight 37° C.
Procedure: as §1
(§4) Different sulfotransferases were examined for their substrate specificities against three substrates. We tested the sulfotransferases mentioned in example 1, as well as additional ones. The genes encoding these were cloned as described in example 1 using the primers shown in the table below from cDNA libraries of the respective organisms, except for the SULT1A1 from rat (Rattus norvegicus) codon-optimized for E. coli (described above). The resulting vectors were transformed into BL21(DE3)pLysS.
(§5) The resulting strains were grown in M9 medium containing either 100 μM pHCA, 95 μM resveratrol or 87 μM kaempferol. The cultures were grown overnight at 37° C., 300 rpm. The following day the supernatants were isolated and examined by HPLC as described in example 1.

[4] = tested on: SULT1C1 Gallus gallus domesticus; assay: as above; format: cell-based; conditions: E. coli BL21(DE3)pLysS expressing SULT1C1 Gallus gallus domesticus; M9; pHCA 100 μM, resveratrol 95 μM or kaempferol 87 μM; overnight 37° C.
Procedure: as §1, §4, §5

[5] = tested on: SULT1A1 Sus scrofa domesticus; assay: as above; format: cell-based; conditions: E. coli BL21(DE3)pLysS expressing SULT1A1 Sus scrofa domesticus; M9; pHCA 100 μM, resveratrol 95 μM or kaempferol 87 μM; overnight 37° C.
Procedure: as §1, §4, §5

T4 sequence (P17988 whole entry): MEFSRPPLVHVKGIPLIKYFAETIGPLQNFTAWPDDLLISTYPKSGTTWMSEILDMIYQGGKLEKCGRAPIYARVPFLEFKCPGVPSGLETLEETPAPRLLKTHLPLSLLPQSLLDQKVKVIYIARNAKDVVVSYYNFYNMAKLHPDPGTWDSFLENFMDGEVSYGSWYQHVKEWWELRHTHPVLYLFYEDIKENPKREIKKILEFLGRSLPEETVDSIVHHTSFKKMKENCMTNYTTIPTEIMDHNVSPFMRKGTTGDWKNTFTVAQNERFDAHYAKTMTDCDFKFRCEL
T3 sequence (P50225 whole entry V223M): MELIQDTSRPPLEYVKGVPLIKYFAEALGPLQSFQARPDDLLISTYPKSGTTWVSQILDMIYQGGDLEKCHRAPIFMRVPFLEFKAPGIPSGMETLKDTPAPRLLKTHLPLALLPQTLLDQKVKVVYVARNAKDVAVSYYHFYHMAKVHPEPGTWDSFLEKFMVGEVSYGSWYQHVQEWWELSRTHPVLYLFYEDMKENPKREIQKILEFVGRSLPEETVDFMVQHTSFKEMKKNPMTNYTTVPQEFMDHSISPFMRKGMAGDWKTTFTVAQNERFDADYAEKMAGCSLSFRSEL
T2 sequence (Q29476 whole entry): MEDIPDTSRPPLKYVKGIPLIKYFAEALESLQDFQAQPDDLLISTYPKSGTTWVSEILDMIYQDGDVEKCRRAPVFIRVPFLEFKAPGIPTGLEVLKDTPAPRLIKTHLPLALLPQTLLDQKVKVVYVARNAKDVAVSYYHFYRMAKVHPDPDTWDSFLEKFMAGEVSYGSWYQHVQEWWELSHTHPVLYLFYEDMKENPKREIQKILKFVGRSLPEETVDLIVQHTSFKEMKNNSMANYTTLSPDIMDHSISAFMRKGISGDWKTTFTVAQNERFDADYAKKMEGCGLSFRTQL
T1 sequence (P10248 whole entry): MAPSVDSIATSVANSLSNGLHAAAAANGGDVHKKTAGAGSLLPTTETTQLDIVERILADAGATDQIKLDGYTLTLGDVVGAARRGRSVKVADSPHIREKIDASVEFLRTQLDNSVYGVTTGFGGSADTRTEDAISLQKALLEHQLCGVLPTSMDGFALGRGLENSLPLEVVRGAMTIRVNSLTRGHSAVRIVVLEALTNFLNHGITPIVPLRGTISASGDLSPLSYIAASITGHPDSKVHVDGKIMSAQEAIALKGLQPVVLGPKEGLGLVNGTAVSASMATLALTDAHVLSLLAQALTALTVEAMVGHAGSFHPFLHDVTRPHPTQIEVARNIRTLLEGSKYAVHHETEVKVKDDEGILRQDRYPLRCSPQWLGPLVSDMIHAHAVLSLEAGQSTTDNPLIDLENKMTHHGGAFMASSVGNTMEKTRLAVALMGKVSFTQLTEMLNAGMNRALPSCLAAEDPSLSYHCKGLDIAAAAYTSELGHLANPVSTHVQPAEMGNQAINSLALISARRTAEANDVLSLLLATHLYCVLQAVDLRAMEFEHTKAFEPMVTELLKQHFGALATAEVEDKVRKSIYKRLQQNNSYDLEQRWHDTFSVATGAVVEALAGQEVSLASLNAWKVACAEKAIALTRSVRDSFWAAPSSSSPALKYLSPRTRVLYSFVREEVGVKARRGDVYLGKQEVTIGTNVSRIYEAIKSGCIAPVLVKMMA

SMILES | Zosteric acid formed (RmXAL) | Zosteric acid formed [1] | Zosteric acid formed (SULT1A1 human) | Zosteric acid formed [2] | pHCA (RmXAL) | Toxicity to the cells (growth rates in exponential growth phase, OD 600 nm, FIG. 4) (E. coli MG1655) | pHCA remaining [1] | pHCA remaining (SULT1A1 human) | pHCA remaining [2] | Percent conversion of the substrate [3] | Percent conversion of the substrate [4] | Percent conversion of the substrate [5]
O=C(O)/C=C/c1ccc(OS(=O)(=O)O)cc1 [Zosteric acid, zosteric acid] | Not detectable | 0.01 mM | 0.02 mM | 0.10 mM | – | – | – | – | – | – | – | –
O=C(O)/C=C/c1ccc(O)cc1 [pHCA, p-coumaric acid] | – | – | – | – | 0.04 mM | toxic to the cells | 0.10 mM | 0.08 mM | 0.02 mM | 17% | 26% | 8%
